The target in test [1] is Human recombinant GST-PI3Kγ (Homo sapiens, UniProt P48736). As to the kind of experiment: High Throughput PI3K Lipid Kinase Assay (SPA, neomycin-coated beads). In kind it is biochemical. From the text: a) High Throughput PI3K Lipid Kinase Assay (Binding Assay):
The efficacy of compounds of the invention in inhibiting the PI3K induced-lipid phosphorylation may be tested in the following binding assay
The assay combines the scintillation proximity assay technology (SPA, Amersham) with the capacity of neomycin (a polycationic antibiotic) to bind phospholipids with high affinity and specificity. The Scintillation Proximity Assay is based on the properties of weakly emitting isotopes (such as ^3H, ^125I, ^33P). Coating SPA beads with neomycin allows the detection of phosphorylated lipid substrates after incubation with recombinant PI3K and radioactive ATP in the same well, by capturing the radioactive phospholipids to the SPA beads through their specific binding to neomycin.
To a 384 wells MTP containing 5 μl of the test compound of Formula (I) (solubilized in 6% DMSO; to yield a concentration of 100, 30, 10, 3, 1, 0.3, 0.1, 0.03, 0.01, 01 μM of the test compound), the following assay components are added. 1) 5 μl (58 ng) of Human recombinant GST-PI3Kγ (in Hepes 40 mM, pH 7.4, DTT 1 mM and ethylenglycol 5%) 2) 10 μl of lipid micelles and 3) 10 μl of Kinase buffer ([^33P]γ-ATP 45 μM/60 nCi, MgCl2 30 mM, DTT 1 mM, β-Glycerophosphate 1 mM, Na3VO4 100 μM, Na Cholate 0.3%, in Hepes 40 mM, pH 7.4). After incubation at room temperature for 180 minutes, with gentle agitation, the reaction is stopped by addition of 60 μl of a solution containing 100 μg of neomycin-coated PVT SPA beads in PBS containing ATP 10 mM and EDTA 5 mM. The assay is further incubated at room temperature for 60 minutes with gentle agitation to allow binding of phospholipids to neomycin-SPA beads. After precipitation of the neomycin-coated PVT SPA beads for 5 minutes at 1500×g, radioactive PtdIns(3)P is quantified by scintillation counting in a Wallac MicroBeta™ plate counter.
The values indicated in Table I below refer to the IC50 (nM) with respect to PI3Kγ, i.e. the amount necessary to achieve 50% inhibition of said target. Said values show a considerable inhibitory potency of thiazole compounds with regard to PI3Kγ.

Another test has as its system Akt/PKB phosphorylation. Kind of test: Cell based ELISA to monitor PI3K inhibition: Akt/PKB phosphorylation in Raw 264-7 macrophages after Complement 5a stimulation. The settings on record: Mus musculus, RAW264.7, phospho Serine 473 Akt, read-out: Cell Assay (P-Akt, Elisa) IC50. Here is the method: b) Cell Based ELISA to Monitor PI3K Inhibition:
The efficacy of compounds of the invention in inhibiting the PI3K induced Akt/PKB phosphorylation may be tested in the following cell based assay.
Measurement of Akt/PKB phosphorylation in macrophages after stimulation with Complement 5a: Raw 264: Raw 264-7 macrophages (cultured in DMEM-F12 medium containing 10% Fetal Calf serum and antibiotics) are plated at 20'000 cells/well in a 96 MTP 24 h before cell stimulation. Prior to the stimulation with […] of Complement 5a during 5 minutes, Cells are serum starved for 2 h, and pretreated with inhibitors for 20 minutes. After stimulation cells are fixed in 4% formaldehyde for 20 minutes and washed 3 times in PBS containing 1% Triton X-100 (PBS/Triton). […] Next, phosphorylated Akt/PKB is detected by an overnight incubation at 4° C. with primary antibody (anti phospho Serine 473 Akt IHC, Cell Signaling) diluted 800-fold in PBS/Triton, containing 5% bovine serum albumin (BSA). After 3 washes in PBS/Triton, cells are incubated for 60 minutes with a peroxidase conjugated goat-anti-rabbit secondary antibody (1/400 dilution in PBS/Triton, containing 5% BSA), washed 3 times in PBS/Triton, and 2 times in PBS and further incubated in 100 μl of luminescent substrate reagent solution (Pierce) for 2 minutes, followed by the reading (1 s/well). […]
A general note: ELISA stands for enzyme-linked immunosorbent assay.

The subject of the next test is Neutrophils recruitment. Kind of test: Thioglycollate-induced peritoneal cavity cell recruitment model. In kind it is in vivo. The settings on record: at 10 mg/kg after 4 hours, oral, female C3H mice, thioglycollate i.p. The procedure: Thioglycollate-induced Peritoneal Cavity Cell Recruitment Model
The in vivo efficacy of compounds of the invention in inhibiting the migration of leukocytes upon intraperitoneal challenge of thioglycollate may be tested with the following assay.
8-10 weeks old female C3H mice are fasted during 18 hours. 15 minutes prior the intraperitoneal injection of thioglycollate (1.5%, 40 ml/kg), the mice are treated orally with Thiazoles of Formula (I). Control mice receive CMC/Tween as vehicle (10 ml/kg). The mice are then sacrificed by CO2 inhalation and the peritoneal cavity is washed two times with 5 ml of ice-cold PBS/1 mM EDTA. The ravages are done 4 hours or 48 hours after thioglycollate challenge to evaluate neutrophils or macrophages recruitment, respectively. The white blood cells (neutrophils, lymphocytes or macrophages) are counted using a Beckman Coulter® A°T 5diff™.
Dexamethasone is used as reference drug.

As a reminder, the IC50 is the concentration needed to halve the response being measured.

Human recombinant GST-PI3Kγ, sequence (P48736 whole entry): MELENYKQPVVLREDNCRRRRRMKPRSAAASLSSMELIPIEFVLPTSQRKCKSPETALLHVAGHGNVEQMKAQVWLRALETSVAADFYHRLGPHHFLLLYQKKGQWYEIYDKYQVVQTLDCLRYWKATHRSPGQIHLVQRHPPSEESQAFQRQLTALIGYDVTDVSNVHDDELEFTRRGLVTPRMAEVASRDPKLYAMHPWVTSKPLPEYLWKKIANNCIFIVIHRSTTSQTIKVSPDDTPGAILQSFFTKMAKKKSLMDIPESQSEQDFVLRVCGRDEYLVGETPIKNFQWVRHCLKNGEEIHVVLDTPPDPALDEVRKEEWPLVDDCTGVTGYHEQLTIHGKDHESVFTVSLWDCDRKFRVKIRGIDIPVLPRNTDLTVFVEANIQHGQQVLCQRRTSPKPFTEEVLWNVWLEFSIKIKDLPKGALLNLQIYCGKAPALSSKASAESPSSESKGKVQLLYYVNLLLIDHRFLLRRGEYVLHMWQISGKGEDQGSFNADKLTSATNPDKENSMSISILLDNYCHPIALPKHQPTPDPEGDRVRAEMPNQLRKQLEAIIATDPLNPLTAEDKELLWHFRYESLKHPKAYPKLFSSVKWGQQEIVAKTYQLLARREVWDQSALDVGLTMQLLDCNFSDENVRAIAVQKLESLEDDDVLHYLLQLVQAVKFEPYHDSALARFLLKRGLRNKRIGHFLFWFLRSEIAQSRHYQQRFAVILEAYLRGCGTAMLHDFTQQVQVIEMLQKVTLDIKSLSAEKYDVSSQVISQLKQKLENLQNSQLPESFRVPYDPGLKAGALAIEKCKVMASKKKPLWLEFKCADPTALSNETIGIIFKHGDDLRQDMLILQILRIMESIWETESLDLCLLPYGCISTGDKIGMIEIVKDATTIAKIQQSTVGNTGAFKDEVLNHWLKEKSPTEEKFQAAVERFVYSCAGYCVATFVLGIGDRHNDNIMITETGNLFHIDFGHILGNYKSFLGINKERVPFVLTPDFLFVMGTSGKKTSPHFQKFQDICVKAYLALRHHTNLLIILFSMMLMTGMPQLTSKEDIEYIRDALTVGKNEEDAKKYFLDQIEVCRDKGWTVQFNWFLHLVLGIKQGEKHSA

`CC(=O)Nc1nc(C)c(-c2ccc(C=O)s2)s1` [Example 1, N-[5-(5-formyl-2-thienyl)-4-methyl-1,3-thiazol-2-yl]acetamide]: the IC50 in test [1] turned out to be 215 nM.

Consider `CC(=O)Nc1nc(C)c(-c2ccc(CO)s2)s1` [Example 3, N-[5-[5-(hydroxymethyl)-2-thienyl]-4-methyl-1,3-thiazol-2-yl]acetamide], for which the IC50 in test [1] is 219 nM.

In the case of `CC(=O)Nc1nc(C)c(-c2ccc(C(=O)N3CCOCC3)s2)s1` [Example 5], in test [1], the IC50 was determined as 249 nM.

For `CC(=O)Nc1nc(C)c(-c2ccc(C(=O)N3CCCC(O)C3)s2)s1` (stereo not drawn) [Example 8, N-(5-{5-[(3-hydroxypiperidin-1-yl)carbonyl]-2-thienyl}-4-methyl-1,3-thiazol-2-yl)acetamide], the 50% inhibitory concentration (IC50) in test [1] was determined as 1100 nM.

Take `C=CCNS(=O)(=O)c1ccc(-c2sc(NC(C)=O)nc2C)s1` [Example 12, N-(5-[5-{(allylamino)sulfonyl]-2-thienyl}-4-methyl-1,3-thiazol-2-yl) acetamide]: the IC50 with Akt/PKB phosphorylation was 322 nM. The “% of inhibition of Neutrophils recruitment” value in the test on Neutrophils recruitment is listed as 38%.
